The term IC50 denotes the concentration needed to halve the response being measured.

The source of these data is patent US11236086B2, “Substituted pyrrolopyridines as inhibitors of activin receptor-like kinase” (BLUEPRINT MEDICINES CORPORATION, priority 2017, dated 2022).

One test deals with T1, human ALK2 R206H (Homo sapiens, UniProt Q04771, R206H).
T1 construct: expressed in transfected cells; host or cells: HEK293 (ATCC CRL1573), lentivirus transduction, blasticidin selection
T1 sequence (Q04771 21-509 R206H): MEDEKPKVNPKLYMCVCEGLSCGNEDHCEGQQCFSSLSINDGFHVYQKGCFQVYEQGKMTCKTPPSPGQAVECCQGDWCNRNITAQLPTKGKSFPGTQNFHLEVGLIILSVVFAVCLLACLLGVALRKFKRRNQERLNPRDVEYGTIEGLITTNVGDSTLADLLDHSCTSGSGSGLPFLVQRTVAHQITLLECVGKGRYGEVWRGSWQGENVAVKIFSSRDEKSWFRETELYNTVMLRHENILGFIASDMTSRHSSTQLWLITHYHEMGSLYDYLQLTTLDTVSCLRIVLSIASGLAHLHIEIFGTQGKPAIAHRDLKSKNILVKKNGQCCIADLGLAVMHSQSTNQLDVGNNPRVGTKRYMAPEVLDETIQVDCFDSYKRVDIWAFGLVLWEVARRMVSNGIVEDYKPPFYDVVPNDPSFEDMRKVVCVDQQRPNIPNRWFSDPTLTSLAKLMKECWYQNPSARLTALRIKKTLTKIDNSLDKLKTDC
Kind of test: Cell-based ALK2-R206H cell activity assay (Smad1-Ser463/Ser465 phosphorylation by AlphaLISA in HEK293-ALK2-R206H cells). The conditions noted are these: phospho-Smad1 AlphaLISA, read-out: Cell Line (Cell Assay, IC50 class). The method, boiled down:
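IC50 comes from a 10-point curve, scaled between DMSO and 1 μM LDN193189 controls, of lysate phospho-Smad1 (Ser463/465) measured by AlphaLISA. Compounds (top 10 μM or 1 μM, 3-fold steps, duplicates) were given 2-3 h to serum-starved HEK293 cells that stably express FLAG-tagged human ALK2 R206H.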
On the technique in general: Alpha assays give light when donor and acceptor beads are brought close together.

Test [1] deals with T2, ALK2R206H (mutant ALK2, N-terminally tagged with GST) (Homo sapiens, UniProt Q04771, R206H).
T2 construct: purchased Carna Bioscience or ThermoFisher 09-148 or PV6232
T2 sequence (Q04771 21-509 R206H): T1 sequence (Q04771 21-509 R206H)
Put plainly: ALK binding assay (LANTHASCREEN TR-FRET competitive binding, displacement of Kinase Tracer 178). Conditions: read-out: Binding Assay (IC50 class). The method, boiled down: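 Competitive displacement of Kinase Tracer 178 (50 nM) from N-terminally GST-tagged mutant ALK2 R206H (2-5 nM) by compound, detected by TR-FRET with Eu-anti-GST antibody (4-10 nM). 30 min room temperature incubation, 1% DMSO final; normalized signal fitted to 4-parameter log dose response for IC50.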
A general note: Time-resolved FRET reads energy transfer from a long-lived donor to a nearby acceptor.

For the compound `CCOC(=O)N1CCN(c2ccnc3[nH]c(-c4ccc(C5(OC)CCOCC5)cc4C#N)cc23)CC1` [Compound 455], the results for the IC50 (at human ALK2 R206H; in test [1]) were ≤ 100 nM and ≤ 10 nM, respectively.
With `Cc1nc(-c2[nH]c3nccc(N4CCN(C(=O)OC5CC5)CC4)c3c2C#N)cn1C` [Compound 201], the IC50 on human ALK2 R206H is ≤ 100 nM; in test [1], ≤ 10 nM.
As to `CCOC(=O)N1CCN(c2ccnc3[nH]c(-c4cnn(C(C)(C)C#N)c4)cc23)CC1` [Compound 213], the IC50 on human ALK2 R206H is 100 to 500 nM; in test [1], ≤ 10 nM.
Regarding `CC1OCC1OC(=O)N1CCN(c2ccnc3[nH]c(-c4cnn(C)c4)cc23)CC1` (stereo not drawn) [Compound 155], the values for the half-maximal inhibitory concentration (IC50) (on human ALK2 R206H; in test [1]) were > 500 nM and ≤ 10 nM, respectively.
The corresponding values for `Cc1nc(-c2cc3c(N4CCN(C(=O)O[C@@H]5CCC5(F)F)CC4)ccnc3[nH]2)cn1C` [Compound 326] are ≤ 100 nM and ≤ 10 nM.
With `CCOC(=O)N1CCN(c2ccnc3[nH]c(-c4cnn(C)c4)c(CO)c23)CC1` [Compound 111], the figures for the IC50 (at human ALK2 R206H; in test [1]) were 100 to 500 nM and ≤ 10 nM, respectively.
Turning to `Cc1nn(C)cc1-c1cc2c(N3CCN(C(=O)OC4COC4)CC3)ccnc2[nH]1` [Compound 151], the IC50 at human ALK2 R206H is 100 to 500 nM; in test [1] it was ≤ 10 nM.
As for `Cn1cc(-c2cc3c(N4CCN(C(=O)OC5COC5)CC4)ccnc3[nH]2)c(Cl)n1` [Compound 277], the IC50 at human ALK2 R206H was ≤ 100 nM; in test [1], ≤ 10 nM.
On to `O=C(C1CC1)N1CCN(c2ccnc3[nH]c(-c4cnn(Cc5ccccc5)c4)cc23)CC1` [Compound 315], for which the half-inhibitory concentration (IC50) at human ALK2 R206H was ≤ 100 nM; in test [1], ≤ 10 nM.
For the compound `CCOC(=O)N1CCN(c2ccnc3[nH]c(-c4csc(C#N)c4)cc23)CC1` [Compound 86], the IC50 on human ALK2 R206H is ≤ 100 nM; in test [1], ≤ 10 nM.
Regarding `N#Cc1cc(-c2cc3c(N4CCN(C(=O)OC5COC5)CC4)ccnc3[nH]2)cs1` [Compound 227], the IC50 at human ALK2 R206H was 100 to 500 nM; in test [1] it was ≤ 10 nM.
The matching figures for `Cc1c(-c2cc3c(N4CCN(C(=O)[C@H]5CC[C@H](C#N)CC5)CC4)ccnc3[nH]2)cnn1C` [Compound 334]: 100 to 500 nM and ≤ 10 nM.
In the case of `CCn1cnc(-c2cc3c(N4CCN(C(=O)OC5COC5)CC4)ccnc3[nH]2)c1` [Compound 146], the 50% inhibitory concentration (IC50) is ≤ 100 nM on human ALK2 R206H and ≤ 10 nM in test [1].
The corresponding values for `O=C(C1CC1)N1CCN(c2ccnc3[nH]c(-c4cnn(C5CCC5)c4)cc23)CC1` [Compound 128] are 100 to 500 nM and ≤ 10 nM.
The matching figures for `Cc1ncsc1-c1cc2c(N3CCN(C(=O)OC4COC4)CC3)ccnc2[nH]1` [Compound 175]: 100 to 500 nM and ≤ 10 nM.
The matching figures for `CCOC(=O)N1CCN(c2ccnc3[nH]c(-c4nc(C)cs4)cc23)CC1` [Compound 48]: 100 to 500 nM and ≤ 10 nM.
With `CC#Cc1c(-c2cn(C)c(C)n2)[nH]c2nccc(N3CCN(C(=O)OC4COC4)CC3)c12` [Compound 347], the results for the IC50 (on human ALK2 R206H; in test [1]) were ≤ 100 nM and ≤ 10 nM, respectively.
Consider `N#CC1(c2ccc(-c3cc4c(N5CCN(C(=O)C6CC6)CC5)ccnc4[nH]3)cc2)CC1` [Compound 241], for which the half-maximal inhibitory concentration (IC50) was ≤ 100 nM at human ALK2 R206H and ≤ 10 nM in test [1].
The matching figures for `O=C(OC1COC1)N1CCN(c2ccnc3[nH]c(-c4ncc(C5CC5)s4)cc23)CC1` [Compound 312]: ≤ 100 nM and ≤ 10 nM.
The corresponding values for `COC(=O)COc1ccc(-c2cc3c(N4CCN(C(=O)C5CC5)CC4)ccnc3[nH]2)cc1` [Compound 348] are > 500 nM and ≤ 10 nM.
For `Cc1nn(C(C)C)cc1-c1cc2c(N3CCN(C(=O)OC4COC4)CC3)ccnc2[nH]1` [Compound 304], the IC50 at human ALK2 R206H is ≤ 100 nM; in test [1], ≤ 10 nM.
As for `CC(C)N1CCC(c2ccc(-c3cc4c(N5CCN(C(=O)OC6COC6)CC5)ccnc4[nH]3)cc2)CC1` [Compound 467], the IC50 is ≤ 100 nM at human ALK2 R206H and ≤ 10 nM in test [1].
The corresponding values for `CC(C)(C)c1ccc(-c2cc3c(N4CCN(C(=O)C5CC5)CC4)ccnc3[nH]2)cc1` [Compound 185] are 100 to 500 nM and ≤ 10 nM.
The matching figures for `Cn1cnc(-c2[nH]c3nccc(N4CCN(C(=O)OC5CCC5)CC4)c3c2C#N)c1` [Compound 199]: ≤ 100 nM and ≤ 10 nM.
The matching figures for `CCOC(=O)N1CCN(c2ccnc3[nH]c(-c4ncc(C(C)C)s4)cc23)CC1` [Compound 177]: ≤ 100 nM and ≤ 10 nM.
As for `CO[C@H]1C[C@H](OC(=O)N2CCN(c3ccnc4[nH]c(-c5cnn(C)c5)cc34)CC2)C1` [Compound 232], the results for the IC50 (at human ALK2 R206H; in test [1]) were ≤ 100 nM and ≤ 10 nM, respectively.
`Cc1nc(-c2cc3c(N4CCN(C(=O)OCC(F)F)CC4)ccnc3[nH]2)cs1` [Compound 212]: the values for the 50% inhibitory concentration (IC50) (at human ALK2 R206H; in test [1]) were ≤ 100 nM and ≤ 10 nM, respectively.
Take `Cc1cnc(-c2cc3c(N4CCN(C(=O)OC5COC5)CC4)ccnc3[nH]2)s1` [Compound 174]: the half-inhibitory concentration (IC50) on human ALK2 R206H is 100 to 500 nM; in test [1], ≤ 10 nM.
The corresponding values for `CCOC(=O)N1CCN(c2ccnc3[nH]c(-c4ncc(C)s4)cc23)CC1` [Compound 49] are 100 to 500 nM and ≤ 10 nM.
With `Cn1cnc(-c2cc3c(N4CCN(C(=O)O[C@H]5CCC5(F)F)CC4)ccnc3[nH]2)c1` [Compound 265], the IC50 was ≤ 100 nM on human ALK2 R206H and ≤ 10 nM in test [1].
The corresponding values for `CCOC(=O)N1CCN(c2ccnc3[nH]c(-c4cnn(C)c4CC)cc23)CC1` [Compound 100] are 100 to 500 nM and ≤ 10 nM.
Consider `COc1cccc(-c2cc3c(N4CCN(C(=O)C5CC5)CC4)ccnc3[nH]2)c1` [Compound 59], for which the IC50 on human ALK2 R206H was 100 to 500 nM; in test [1], ≤ 10 nM.
The corresponding values for `Cn1cc(-c2cc3c(N4CCN(C(=O)OC5CCOCC5)CC4)ccnc3[nH]2)cn1` [Compound 234] are 100 to 500 nM and ≤ 10 nM.
The corresponding values for `CCOC(=O)N1CCN(c2ccnc3[nH]c(-c4cn(C)nc4Cl)cc23)CC1` [Compound 122] are 100 to 500 nM and ≤ 10 nM.
The corresponding values for `Cc1c(-c2cnn(C)c2)[nH]c2nccc(N3CCN(C(=O)OC4CCC4)CC3)c12` [Compound 140] are ≤ 100 nM and ≤ 10 nM.
Regarding `Cn1cc(-c2[nH]c3nccc(N4CCN(C(=O)OC5COC5)CC4)c3c2Cl)cn1` [Compound 276], the values for the half-maximal inhibitory concentration (IC50) (on human ALK2 R206H; in test [1]) were ≤ 100 nM and ≤ 10 nM, respectively.
For the compound `O=C(C1CC1)N1CCN(c2ccnc3[nH]c(-c4ccc(C5(F)CCCNC5)cc4)cc23)CC1` (stereo not drawn) [Compound 390], the IC50 is ≤ 100 nM at human ALK2 R206H and ≤ 10 nM in test [1].
The corresponding values for `Cc1nc(-c2cc3c(N4CCN(C(=O)OC5CS(=O)(=O)C5)CC4)ccnc3[nH]2)cs1` [Compound 387] are ≤ 100 nM and ≤ 10 nM.
The matching figures for `Cn1cc(-c2[nH]c3nccc(N4CCN(C(=O)OC5CS(=O)(=O)C5)CC4)c3c2C#N)cn1` [Compound 414]: ≤ 100 nM and ≤ 10 nM.
Take `Cn1cc(-c2cc3c(N4CCN(C(=O)O[C@H]5C[C@H](F)C5)CC4)ccnc3[nH]2)cn1` [Compound 162]: the half-maximal inhibitory concentration (IC50) on human ALK2 R206H was ≤ 100 nM; in test [1], ≤ 10 nM.
The corresponding values for `Cc1nc(-c2cc3c(N4CCN(C(=O)OC5CC5)CC4)ccnc3[nH]2)cs1` [Compound 109] are ≤ 100 nM and ≤ 10 nM.
The corresponding values for `O=C(C1CC1)N1CCN(c2ccnc3[nH]c(-c4ccc(N5CCN(CC(F)F)CC5)cc4)cc23)CC1` [Compound 461] are 100 to 500 nM and ≤ 10 nM.
Consider `CC(C)N1CCC(c2ccc(-c3cc4c(N5CCN(C(=O)OC6COC6)CC5)ccnc4[nH]3)nc2)CC1` [Compound 469], for which the IC50 on human ALK2 R206H is ≤ 100 nM; in test [1], ≤ 10 nM.
Consider `Cn1cnc(-c2[nH]c3nccc(N4CCN(C(=O)OC5COC5)CC4)c3c2C#N)c1` [Compound 208], for which the 50% inhibitory concentration (IC50) on human ALK2 R206H was ≤ 100 nM; in test [1] it was ≤ 10 nM.
Take `CCOC(=O)N1CCN(c2ccnc3[nH]c(-c4ccn(C)n4)cc23)CC1` [Compound 12]: the half-inhibitory concentration (IC50) at human ALK2 R206H is 100 to 500 nM; in test [1], ≤ 10 nM.
The matching figures for `CCOC(=O)N1CCN(c2ccnc3[nH]c(-c4cccc(C)n4)cc23)CC1` [Compound 26]: 100 to 500 nM and ≤ 10 nM.
As to `O=C(OC1COC1)N1CCN(c2ccnc3[nH]c(-c4nc5c(s4)CSCC5)cc23)CC1` [Compound 417], the figures for the IC50 (on human ALK2 R206H; in test [1]) were ≤ 100 nM and ≤ 10 nM, respectively.
The corresponding values for `Cc1nc(-c2cc3c(N4CCN(C(=O)OC5COC5)CC4)ccnc3[nH]2)cn1C` [Compound 147] are ≤ 100 nM and ≤ 10 nM.
